In patent US12583855B2, “RET selective inhibitor, preparation method therefor and use thereof” (SHOUYAO HOLDINGS (BEIJING) CO., LTD., priority 2019, dated 2026):
Where a chain is given by its changes, count along the chain named.

Columns and labels:
Format in all cases: biochemical
RET^V804M = target: T1, RET^V804M (Homo sapiens, UniProt P07949, V804M); experiment: In vitro enzymatic activity assay on RET^V804M (HTRF); conditions: GST-RET^V804M (658-1114 aa) 0.02 nM, ATP 1.5 μM
T1 construct: GST-RET^V804M (658-1114 aa, final concentration of 0.02 nM)
T1 sequence (P07949 658-1114 V804M): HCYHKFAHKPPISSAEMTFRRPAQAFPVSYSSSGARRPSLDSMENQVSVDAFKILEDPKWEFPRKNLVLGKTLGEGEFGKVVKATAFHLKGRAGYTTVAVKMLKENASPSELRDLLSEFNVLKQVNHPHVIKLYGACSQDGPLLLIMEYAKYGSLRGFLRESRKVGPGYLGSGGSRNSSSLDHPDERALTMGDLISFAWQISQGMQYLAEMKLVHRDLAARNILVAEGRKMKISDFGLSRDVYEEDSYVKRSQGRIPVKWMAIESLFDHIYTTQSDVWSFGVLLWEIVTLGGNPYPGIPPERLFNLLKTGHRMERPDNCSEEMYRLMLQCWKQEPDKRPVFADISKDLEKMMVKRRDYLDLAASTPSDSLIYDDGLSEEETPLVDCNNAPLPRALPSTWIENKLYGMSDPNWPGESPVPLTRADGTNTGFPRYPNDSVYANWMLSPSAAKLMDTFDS

VEGFR2 = VEGFR2 (Homo sapiens, UniProt P35968); experiment: In vitro enzymatic activity assay on VEGFR2 (HTRF); conditions: GST-VEGFR2 0.1 nM, ATP 2.5 μM
Experimental: 3. n Vitro Enzymatic Activity Assay for Compounds on VEGFR2
The compounds were diluted 5-fold with 100% DMSO starting from 1 mM (7 concentrations in total), and 2 μL of each concentration was added to 48 μL of reaction buffer (50 mM HEPES pH 7.5, 0.1 mM Na3VO4, 5 mM MgCl2, 1 mM MnCl2, 1 mM DTT, 0.001% Tween 20, and 100 μg/ml BSA) for dilution and mixing. 2.5 μL of compounds and 5 μL of GST-VEGFR2 (final concentration of 0.1 nM) were added to a 384-well plate (OptiPlate-384, purchased from PerkinElmer), the mixture was mixed by centrifugation, and 2.5 μL of ATP (final concentration of 2.5 μM) and TK Peptide Substrate mixture (final concentration of 1 μM, purchased from Cisbio) were added to start the reaction, with a total reaction volume of 10 μL. The 384-well plate was placed in an incubator and reacted at 23° C. for 1.5 h before the reaction was stopped by the addition of 5 μL of TK Antibody (purchased from Cisbio) and 5 μL of Streptavidin-XL665 (purchased from Cisbio). After further incubation in the incubator for 1 h. fluorescence values (excitation at 320 nm, detecting emitted light at 665 nm and 620 nm, and a ratio of the two as an enzyme activity signal) were read on Envision (purchased from PerkinElmer). The enzymatic activity signal of VEGFR2 was measured at 7 concentrations for each compound and the data were calculated using GraphPad Prism software to obtain the IC50 value for the compound.

RET^WT = target: T2, RET^WT (Homo sapiens, UniProt P07949); experiment: In vitro enzymatic activity assay on RET^WT (HTRF); conditions: GST-RET^WT (658-1114 aa) 0.5 nM, ATP 25 μM
T2 construct: GST-RET^WT (658-1114 aa, final concentration of 0.5 nM)
T2 sequence (P07949 658-1114): T1 sequence (P07949 658-1114 V804M) with M147V
Experimental: 1. In Vitro Enzymatic Activity Assay for Compounds on RET^WT
The compounds were diluted 5-fold with 100% DMSO starting from 0.2 mM (7 concentrations in total), and 2 μL of each concentration was added to 48 μL of reaction buffer (50 mM HEPES pH7.5, 0.1 mM Na3VO4, 5 mM MgCl2. 1 mM DTT, 0.001% Tween 20, and 100 μg/ml BSA) for dilution and mixing.
The 384-well plate was placed in an incubator and reacted at 23° C. for 2 h before the reaction was stopped by the addition of 5 μL of TK Antibody (purchased from Cisbio) and 5 μL of Streptavidin-XL665 (purchased from Cisbio). […] The enzymatic activity signal of RET^WT was measured at 7 concentrations for each compound and the data were calculated using GraphPad Prism software to obtain the IC50 value for the compound.

VEGFR2, sequence (P35968 20-1356): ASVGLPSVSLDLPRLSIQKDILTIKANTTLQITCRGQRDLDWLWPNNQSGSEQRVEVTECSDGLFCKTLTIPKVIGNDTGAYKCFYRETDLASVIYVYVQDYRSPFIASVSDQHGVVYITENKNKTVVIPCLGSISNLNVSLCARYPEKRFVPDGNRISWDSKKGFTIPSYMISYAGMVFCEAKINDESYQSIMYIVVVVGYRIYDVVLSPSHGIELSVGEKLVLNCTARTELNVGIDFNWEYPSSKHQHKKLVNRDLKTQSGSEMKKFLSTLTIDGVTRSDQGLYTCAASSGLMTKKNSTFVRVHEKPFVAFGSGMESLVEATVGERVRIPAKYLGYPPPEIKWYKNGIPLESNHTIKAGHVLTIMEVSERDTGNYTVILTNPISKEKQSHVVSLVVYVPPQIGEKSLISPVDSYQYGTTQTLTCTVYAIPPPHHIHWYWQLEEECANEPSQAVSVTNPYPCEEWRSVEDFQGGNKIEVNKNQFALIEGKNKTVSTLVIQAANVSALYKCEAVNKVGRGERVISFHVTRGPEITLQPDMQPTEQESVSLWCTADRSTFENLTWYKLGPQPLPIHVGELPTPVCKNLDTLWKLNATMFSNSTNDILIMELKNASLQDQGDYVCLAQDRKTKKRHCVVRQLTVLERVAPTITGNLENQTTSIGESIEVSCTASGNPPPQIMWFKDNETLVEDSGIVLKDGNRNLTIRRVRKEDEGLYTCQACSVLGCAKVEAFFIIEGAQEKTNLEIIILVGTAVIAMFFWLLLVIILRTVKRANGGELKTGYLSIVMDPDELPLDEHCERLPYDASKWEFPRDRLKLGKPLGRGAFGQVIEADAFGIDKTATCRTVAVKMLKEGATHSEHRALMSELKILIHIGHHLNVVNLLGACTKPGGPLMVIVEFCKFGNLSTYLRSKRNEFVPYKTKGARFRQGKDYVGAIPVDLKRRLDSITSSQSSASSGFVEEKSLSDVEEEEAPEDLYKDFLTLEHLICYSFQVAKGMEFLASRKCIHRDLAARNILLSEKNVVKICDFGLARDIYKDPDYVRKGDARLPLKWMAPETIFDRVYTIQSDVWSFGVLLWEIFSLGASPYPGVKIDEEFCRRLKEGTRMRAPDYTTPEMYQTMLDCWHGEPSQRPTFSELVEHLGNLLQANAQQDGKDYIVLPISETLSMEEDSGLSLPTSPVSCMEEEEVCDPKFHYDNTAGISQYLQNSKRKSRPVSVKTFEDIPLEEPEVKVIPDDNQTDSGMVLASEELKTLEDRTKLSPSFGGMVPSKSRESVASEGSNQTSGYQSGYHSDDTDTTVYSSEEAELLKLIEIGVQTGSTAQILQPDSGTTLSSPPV

Row | SMILES | IC50 (RET^V804M) | IC50 (VEGFR2) | IC50 (RET^WT)
1 | CS(=O)(=O)c1ccc(CN2C3CC2CN(c2ccc(-c4cc(N5CC(C#N)C5)cn5ncc(C#N)c45)cn2)C3)cc1 [Example 35, 6-(3-cyanoazetidin-1-yl)-4-(6-(6-(4-(methylsulfonyl)benzyl)-3,6-diazabicyclo[3.1.1]heptan-3-yl)pyridin-3-yl)pyrazolo[1,5-a]pyridine-3-carbonitrile] | 1.47 nM | 9.6 nM | 0.172 nM
2 | CS(=O)(=O)c1ccc(CN2C3CC2CN(c2cnc(-c4cc(-c5cnn(C(F)F)c5)cn5ncc(C#N)c45)cn2)C3)cc1 [Example 70, 4-(5-(6-(4-(methylsulfonyl)benzyl)-3,6-diazabicyclo[3.1.1]heptan-3-yl)pyrazin-2-yl)-6-(1-(difluoromethyl)-1Hpyrazol-4-yl) pyrazolo[1,5-a] pyridine-3-carbonitrile] | 2.52 nM | 55.7 nM | 0.324 nM
3 | CSc1cccc(CN2C3CC2CN(c2ccc(-c4cc(-c5cnn(C(F)F)c5)cn5ncc(C#N)c45)cn2)C3)n1 [Example 74, 6-(1-(difluoromethyl)-1Hpyrazol-4-yl)-4-(6-(6-((6-(methylthio)pyridin-2-yl)methyl)-3,6-diazabicyclo[3.1.1]heptan-3-yl)pyridin-3-yl)pyrazolo[1,5-a]pyridine-3-carbonitrile] | 4.19 nM | 14.4 nM | 0.676 nM
4 | COC/C=C/C(=O)N1C2CC1CN(c1ccc(-c3cc(-c4cnn(C)c4)cn4ncc(C#N)c34)cn1)C2 [Example 61, (E)-4-(6-(6-(4-methoxybut-2-enoyl)-3,6-diazabicyclo[3.1.1]heptan-3-yl)pyridin-3-yl)-6-(1-methyl-1Hpyrazol-4-yl)pyrazolo[1,5-a]pyridine-3-carbonitrile] | 6.37 nM | 18.2 nM | 0.779 nM
5 | CS(=O)(=O)c1ccc(CN2C3CC2CN(c2ccc(-c4cc(N5CC(F)(F)C5)cn5ncc(C#N)c45)cn2)C3)cc1 [Example 36, 6-(3,3-difluoroazetidin-1-yl)-4-(6-(6-(4-(methylsulfonyl)benzyl)-3,6-diazabicyclo [3.1.1]heptan-3-yl)pyridin-3-yl)pyrazolo[1,5-a]pyridine-3-carbonitrile] | 2.58 nM | 16.9 nM | 0.179 nM
6 | C=CC(=O)N1CCN(c2ccc(-c3cc(-c4cnn(C)c4)cn4ncc(C#N)c34)cn2)CC1 [Example 1, 4-(6-(4-acryloylpiperazin-1-yl)pyridin-3-yl)-6-(1-methyl-1Hpyrazol-4-yl)pyrazolo[1,5-a]pyridine-3-carbonitrile] | 1.21 nM | 4.49 nM | 0.352 nM
7 | CS(=O)(=O)c1ccccc1CN1C2CC1CN(c1ccc(-c3cc(N4CC(F)(F)C4)cn4ncc(C#N)c34)cn1)C2 [Example 67, 6-(3,3-difluoroazetidin-1-yl)-4-(6-(6-(2-(methylsulfonyl)benzyl)-3,6-diazabicyclo [3.1.1]heptan-3-yl)pyridin-3-yl)pyrazolo[1,5-a]pyridine-3-carbonitrile] | 3.97 nM | 80.5 nM | 0.465 nM
8 | COc1ccc(CN2CCN(c3ccc(-c4cc(N5CC(OC)C5)cn5ncc(C#N)c45)cn3)CC2)cn1 [Example 33, 6-(3-methoxyazetidin-1-yl)-4-(6-(4-((6-methoxypyridin-3-yl)methyl)piperazin-1-yl)pyridin-3-yl)pyrazolo[1,5-a]pyridine-3-carbonitrile] | 2.84 nM | 7.5 nM | 0.944 nM
9 | COc1ccc(CN2C3CC2CN(c2ccc(-c4cc(N5CC6(COC6)C5)cn5ncc(C#N)c45)cn2)C3)cn1 [Example 14, 4-(6-(6-((6-methoxypyridin-3-yl)methyl)-3,6-diazabicyclo[3.1.1]heptan-3-yl)pyridin-3-yl)-(2-oxa-azaspiro[3.3]hepta-6-yl)pyrazolo[1,5-a]pyridine-3-carbonitrile] | 0.629 nM | 1.55 nM | 0.762 nM
10 | CS(=O)(=O)c1ccc(CN2CCN(c3ccc(-c4cc(-c5cnn(C(F)F)c5)cn5ncc(C#N)c45)cn3)CC2)cc1 [Example 49, 6-(1-difluoromethyl-1Hpyrazol-4-yl)-4(6-(4-(4-(methylsulfonyl)benzyl)piperazin-1-yl)pyridin-3-yl)pyrazolo[1,5-a]pyridine-3-carbonitrile] | – | 18.2 nM | 0.94 nM
11 | COc1ccc(CN2C3CC2CN(c2ccc(-c4cc(N5CC6(CCOCC6)C5)cn5ncc(C#N)c45)cn2)C3)cn1 [Example 30, 4-(6-(6-((6-methoxypyridin-3-yl)methyl)-3,6-diazabicyclo[3.1.1]heptan-3-yl)pyridin-3-yl)-6-(7-oxa-2-azaspiro[3.5]nonan-2-yl) pyrazolo[1,5-a]pyridine-3-carbonitrile] | 1.11 nM | – | 0.68 nM
12 | CSc1cccc(CN2CCN(c3ccc(-c4cc(-c5cnn(C)c5)cn5ncc(C#N)c45)cn3)CC2)n1 [Example 51, 6-(1-methyl-1Hpyrazol-4-yl)-4-(6-(4-((6-(methylthio)pyridin-2-yl)methyl)piperazin-1-yl)pyridin-3-yl)pyrazolo[1,5-a]pyridine-3-carbonitrile] | – | 6.2 nM | 0.328 nM
13 | COc1ccc(CN2CCN(c3ccc(-c4cc(N5CCOCC5)cn5ncc(C#N)c45)cn3)CC2)cn1 [Example 19, 6-(morpholino-1-yl)-4-(6-(4-((6-methoxypyridin-3-yl)methyl)piperazin-1-yl)pyridin-3-yl)pyrazolo[1,5-a]pyridine-3-carbonitrile] | – | 94 nM | 0.636 nM
14 | CSc1ccc(CN2C3CC2CN(c2ccc(-c4cc(OCC(C)(C)O)cn5ncc(C#N)c45)cn2)C3)cn1 [Example 11, 6-(2-hydroxy-2-methylpropoxy)-4-(6-(6-((6-(methylthio)pyridin-3-yl)methyl)-3,6-diazabicyclo[3.1.1]heptan-3-yl)pyridin-3-yl)pyrazolo[1,5-a]pyridine-3-carbonitrile] | – | 37 nM | 1.73 nM
15 | CS(=O)(=O)c1ccc(CN2C3CCC2CN(c2ccc(-c4cc(-c5cnn(C(F)F)c5)cn5ncc(C#N)c45)cn2)C3)cc1 [Example 69, 6-(1-difluoromethyl-1Hpyrazol-4-yl)-4-(6-(8-(4-(methylsulfonyl)benzyl)-3,8-diazabicyclo[3.2.1]octan-3-yl)pyridin-3-yl)pyrazolo[1,5-a]pyridine-3-carbonitrile] | 5.47 nM | 63.1 nM | 0.716 nM
16 | COc1ccc(CN2C3CC2CN(c2ccc(-c4cc(N5CC(O)(C(F)(F)F)C5)cn5ncc(C#N)c45)cn2)C3)cn1 [Example 28, 6-(3-hydroxy-3-(trifluoromethyl)azetidin-1-yl)-4-(6-(6-((6-methoxypyridin-3-yl)methyl)-3,6-diazabicyclo[3.1.1]heptan-3-yl)pyridin-3-yl)pyrazolo[1,5-a]pyridine-3-carbonitrile] | 2.5 nM | – | 0.757 nM
